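Cells were grown in 96-well plates and exposed to each compound for 48 hours at five concentrations; endpoints were interpolated linearly between bracketing concentrations, or set to the highest concentration if not reached. GI50: concentration for 50% inhibition of growth.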 Calls of active or inactive are those of the source. Cut-off read from the data, not from the text of the source: active = GI50 up to about 1.1 µM and inactive = higher.
How the values were obtained:
Assay in all cases: NCI-60 cell line screen, 48 h
A549 = system: A549
HOP-62 = system: HOP-62
SK-OV-3 = system: SK-OV-3
OVCAR-5 = system: OVCAR-5
SK-MEL-28 = system: SK-MEL-28
HCT-116 = system: HCT-116
SF-295 = system: SF-295
UO-31 = system: UO-31
U-251 = system: U-251
OVCAR-3 = system: OVCAR-3
SF-268 = system: SF-268
LXFL 529 = system: LXFL 529
KM12 = system: KM12
SW-620 = system: SW-620
K562 = system: K562
UACC-257 = system: UACC-257
SR = system: SR
A498 = system: A498
SK-MEL-2 = system: SK-MEL-2
NCI-H226 = system: NCI-H226
M14 = system: M14
RPMI-8226 = system: RPMI-8226
COLO 205 = system: COLO 205
NCI-H23 = system: NCI-H23
IGROV-1 = system: IGROV-1
CCRF-CEM = system: CCRF-CEM
SNB-75 = system: SNB-75
DMS-273 = system: DMS-273
HL-60 = system: HL-60
M19-MEL = system: M19-MEL
CAKI-1 = system: CAKI-1
HOP-92 = system: HOP-92
ACHN = system: ACHN
HCC 2998 = system: HCC 2998
SNB-78 = system: SNB-78
MOLT-4 = system: MOLT-4
HCT-15 = system: HCT-15
Malme-3M = system: Malme-3M
KM-20L2 = system: KM-20L2
HOP-18 = system: HOP-18
SNB-19 = system: SNB-19
SN12C = system: SN12C
DMS-114 = system: DMS-114
OVCAR-8 = system: OVCAR-8
SF-539 = system: SF-539
UACC-62 = system: UACC-62
RXF 393 = system: RXF 393
LOX IMVI = system: LOX IMVI
786-0 = system: 786-0
OVCAR-4 = system: OVCAR-4
HT-29 = system: HT-29
NCI-H522 = system: NCI-H522
DLD-1 = system: DLD-1
NCI-H460 = system: NCI-H460
SK-MEL-5 = system: SK-MEL-5
TK-10 = system: TK-10
XF498 = system: XF498
EKVX = system: EKVX

Compound: COC(=O)NC(=O)c1cn(C2CCCCC2)c(=O)[nH]c1=O
- GI50 (A549): > 100 µM (inactive)
- GI50 (HOP-62): > 100 µM (inactive)
- GI50 (SK-OV-3): > 100 µM (inactive)
- GI50 (OVCAR-5): > 100 µM (inactive)
- GI50 (SK-MEL-28): > 100 µM (inactive)
- GI50 (HCT-116): > 100 µM (inactive)
- GI50 (SF-295): > 100 µM (inactive)
- GI50 (UO-31): > 100 µM (inactive)
- GI50 (U-251): > 100 µM (inactive)
- GI50 (OVCAR-3): > 100 µM (inactive)
- GI50 (SF-268): > 100 µM (inactive)
- GI50 (LXFL 529): > 100 µM (inactive)
- GI50 (KM12): > 100 µM (inactive)
- GI50 (SW-620): > 100 µM (inactive)
- GI50 (K562): > 100 µM (inactive)
- GI50 (UACC-257): > 100 µM (inactive)
- GI50 (SR): > 100 µM (inactive)
- GI50 (A498): > 100 µM (inactive)
- GI50 (SK-MEL-2): > 100 µM (inactive)
- GI50 (NCI-H226): > 100 µM (inactive)
- GI50 (M14): > 100 µM (inactive)
- GI50 (RPMI-8226): > 100 µM (inactive)
- GI50 (COLO 205): > 100 µM (inactive)
- GI50 (NCI-H23): > 100 µM (inactive)
- GI50 (IGROV-1): > 100 µM (inactive)
- GI50 (CCRF-CEM): > 100 µM (inactive)
- GI50 (SNB-75): > 100 µM (inactive)
- GI50 (DMS-273): > 100 µM (inactive)
- GI50 (HL-60): > 100 µM (inactive)
- GI50 (M19-MEL): > 100 µM (inactive)
- GI50 (CAKI-1): > 100 µM (inactive)
- GI50 (HOP-92): > 100 µM (inactive)
- GI50 (ACHN): > 100 µM (inactive)
- GI50 (HCC 2998): > 100 µM (inactive)
- GI50 (SNB-78): > 100 µM (inactive)
- GI50 (MOLT-4): > 100 µM (inactive)
- GI50 (HCT-15): > 100 µM
- GI50 (Malme-3M): > 100 µM (inactive)
- GI50 (KM-20L2): > 100 µM (inactive)
- GI50 (HOP-18): > 100 µM (inactive)
- GI50 (SNB-19): > 100 µM (inactive)
- GI50 (SN12C): > 100 µM (inactive)
- GI50 (DMS-114): > 100 µM (inactive)
- GI50 (OVCAR-8): > 100 µM (inactive)
- GI50 (SF-539): > 100 µM (inactive)
- GI50 (UACC-62): > 100 µM (inactive)
- GI50 (RXF 393): > 100 µM (inactive)
- GI50 (LOX IMVI): > 100 µM (inactive)
- GI50 (786-0): > 100 µM (inactive)
- GI50 (OVCAR-4): > 100 µM (inactive)
- GI50 (HT-29): > 100 µM (inactive)
- GI50 (NCI-H522): > 100 µM (inactive)
- GI50 (DLD-1): > 100 µM (inactive)
- GI50 (NCI-H460): > 100 µM (inactive)
- GI50 (SK-MEL-5): > 100 µM (inactive)
- GI50 (TK-10): > 100 µM (inactive)

Compound: CC(=O)Oc1ccc2c(=O)c(C(C)=O)coc2c1
- GI50 (A549): > 100 µM (inactive)
- GI50 (HOP-62): > 100 µM (inactive)
- GI50 (OVCAR-5): > 100 µM (inactive)
- GI50 (SK-MEL-28): > 100 µM (inactive)
- GI50 (HCT-116): > 100 µM (inactive)
- GI50 (SF-295): > 100 µM (inactive)
- GI50 (UO-31): > 100 µM (inactive)
- GI50 (U-251): > 100 µM (inactive)
- GI50 (OVCAR-3): > 100 µM (inactive)
- GI50 (SF-268): > 100 µM (inactive)
- GI50 (LXFL 529): > 100 µM (inactive)
- GI50 (KM12): > 100 µM (inactive)
- GI50 (SW-620): > 100 µM (inactive)
- GI50 (K562): > 100 µM (inactive)
- GI50 (UACC-257): > 100 µM (inactive)
- GI50 (SR): > 100 µM (inactive)
- GI50 (A498): 58.1 µM (inactive)
- GI50 (SK-MEL-2): > 100 µM (inactive)
- GI50 (NCI-H226): 83.9 µM (inactive)
- GI50 (M14): > 100 µM (inactive)
- GI50 (RPMI-8226): > 100 µM (inactive)
- GI50 (COLO 205): > 100 µM (inactive)
- GI50 (NCI-H23): > 100 µM (inactive)
- GI50 (IGROV-1): > 100 µM (inactive)
- GI50 (CCRF-CEM): > 100 µM (inactive)
- GI50 (XF498): 83.9 µM (inactive)
- GI50 (DMS-273): > 100 µM (inactive)
- GI50 (HL-60): > 100 µM (inactive)
- GI50 (M19-MEL): > 100 µM (inactive)
- GI50 (CAKI-1): > 100 µM (inactive)
- GI50 (EKVX): > 100 µM (inactive)
- GI50 (HOP-92): 79.6 µM (inactive)
- GI50 (ACHN): > 100 µM (inactive)
- GI50 (SNB-78): 80 µM (inactive)
- GI50 (MOLT-4): > 100 µM (inactive)
- GI50 (HCT-15): > 100 µM
- GI50 (KM-20L2): > 100 µM (inactive)
- GI50 (SNB-19): > 100 µM (inactive)
- GI50 (OVCAR-8): > 100 µM (inactive)
- GI50 (SF-539): > 100 µM (inactive)
- GI50 (RXF 393): > 100 µM (inactive)
- GI50 (LOX IMVI): 81.8 µM (inactive)
- GI50 (786-0): > 100 µM (inactive)
- GI50 (OVCAR-4): > 100 µM (inactive)
- GI50 (HT-29): > 100 µM (inactive)
- GI50 (NCI-H522): > 100 µM (inactive)
- GI50 (NCI-H460): > 100 µM (inactive)
- GI50 (SK-MEL-5): > 100 µM (inactive)
- GI50 (TK-10): > 100 µM (inactive)
